pIC50: −log10 of the molar value.

The target in test [1] is Serine/threonine-protein kinase pim-2 (Homo sapiens, UniProt Q9P1W9). Briefly: Kinase Inhibition Assay. Particulars: pH 7.5; 25 °C. On the procedure:
(§1) Phosphorylation reactions were monitored using a coupled-enzyme assay in which ADP production was coupled to NADH oxidation by pyruvate kinase and lactate dehydrogenase. The assay was carried out in a buffer containing phosphoenolpyruvate, NADH, pyruvate kinase, lactate dehydrogenase, and PIM kinase. The reaction was monitored at 340 nm at 25 deg C on a Spectramax spectrophotometer (Molecular Devices) and started by addition ATP after a 10-min preincubation at 25 deg C. A recognition peptide of the PIM1 substrate p21 ([…]) was used. DMSO-dissolved inhibitors were added at the preincubation period resulting in a 2% final DMSO. Kinetic analysis was done by nonlinear regression fitting using the program KaleidaGraph (Synergy Software).

The target of test [2] is Serine/threonine-protein kinase pim-1 (Homo sapiens, UniProt P11309). The experiment in a line: Kinase Inhibition Assay. The following applies: pH 7.5; 25 °C. On the procedure: as §1
Chain of Serine/threonine-protein kinase pim-1 (P11309 whole entry): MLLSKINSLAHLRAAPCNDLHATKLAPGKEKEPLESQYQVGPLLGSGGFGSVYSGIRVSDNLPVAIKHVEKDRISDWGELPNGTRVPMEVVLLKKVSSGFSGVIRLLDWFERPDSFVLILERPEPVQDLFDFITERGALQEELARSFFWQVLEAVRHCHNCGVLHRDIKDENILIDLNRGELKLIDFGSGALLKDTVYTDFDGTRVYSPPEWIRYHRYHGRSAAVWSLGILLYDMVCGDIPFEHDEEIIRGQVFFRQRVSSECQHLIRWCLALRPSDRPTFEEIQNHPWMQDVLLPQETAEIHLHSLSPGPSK

Chain of Serine/threonine-protein kinase pim-2 (Q9P1W9 whole entry): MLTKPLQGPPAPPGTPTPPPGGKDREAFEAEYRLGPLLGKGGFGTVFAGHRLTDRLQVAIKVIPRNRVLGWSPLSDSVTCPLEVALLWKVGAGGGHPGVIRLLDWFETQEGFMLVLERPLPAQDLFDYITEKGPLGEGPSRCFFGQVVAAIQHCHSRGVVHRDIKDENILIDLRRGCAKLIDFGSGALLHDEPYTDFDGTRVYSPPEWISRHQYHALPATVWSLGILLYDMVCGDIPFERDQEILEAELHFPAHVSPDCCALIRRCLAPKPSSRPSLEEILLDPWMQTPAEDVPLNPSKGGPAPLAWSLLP

The pIC50 is the negative decadic logarithm of the IC50, by convention in mol/L. Turning to `CC(=O)c1cccc(-c2cnc3ccc(NCC4CC4)nn23)c1` [1-(3-{6-[(cyclopropylmethyl)amino]imidazo[1,2-a]pyridazin-3-yl}phenyl)ethan-1-one], the negative-log IC50 (pIC50) in test [1] was 5.74. `Clc1cccc(-c2cnc3ccc(NC4CCOCC4)nn23)c1` [K00152]: the negative logarithm of the IC50 (pIC50) was 7.30 in test [2] and 5.15 in test [1]. For `CCC(CO)Nc1ccc2ncc(-c3ccc(F)c(Cl)c3)n2n1` (stereo not given) [K00486] the same measures were 7.40 and 5.60.

These data come from BindingDB's records for doi:10.1158/0008-5472.CAN-07-0320 (University Hospital Basel, 2007).
